Data published in ChEMBL document CHEMBL1201862, “PubChem BioAssay data set” (2004).
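Each compound was tested at five concentrations against cells in 96-well plates for 48 hours. GI50 = concentration required for 50% inhibition of growth.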 The source made the active and inactive calls. No stated cut-off is given here; in the data, active = GI50 up to about 1.1 µM and inactive = higher.

What was measured:
Assay in all cases: NCI-60 cell line screen, 48 h
RXF 631 = tested on: RXF 631
XF498 = tested on: XF498
LXFL 529 = tested on: LXFL 529
M19-MEL = tested on: M19-MEL
SNB-78 = tested on: SNB-78
DMS-273 = tested on: DMS-273
DMS-114 = tested on: DMS-114
BT-549 = tested on: BT-549
HOP-18 = tested on: HOP-18

What does the source list for `O=C1CC[C@H]2CNC(=O)C[C@H]2C1`?
GI50 (RXF 631): > 100 µM (inactive); GI50 (XF498): > 100 µM (inactive); GI50 (LXFL 529): > 100 µM (inactive); GI50 (M19-MEL): > 100 µM (inactive); GI50 (SNB-78): > 100 µM (inactive); GI50 (DMS-273): > 100 µM (inactive)

`Cc1cccc2c(=O)cc(-c3ccccc3)[nH]c12` was tested. Which GI50 (XF498) did it give?
Its GI50 is 3.01 µM (inactive).

And the GI50 (DMS-114)?
Its GI50 is 3.95 µM (inactive).

What about the GI50 (LXFL 529) of the same compound?
Its GI50 is 4.61 µM (inactive).

What about the GI50 (M19-MEL) of the same compound?
Its GI50 is 4.61 µM (inactive).

And the GI50 (DMS-273)?
Its GI50 is 3.57 µM (inactive).

Which GI50 (BT-549) does the source give for `CC(=O)[C@@H]1C/C(=C\OCc2ccccc2)O[C@H]1C` here?
The GI50 was > 100 µM (inactive).

With `Cc1ccc(Nc2cn(COCc3ccccc3)c(=O)[nH]c2=O)cc1` as the compound, how does the GI50 (BT-549) read?
The GI50 was 11.7 µM (inactive).

With `O=C1c2ccccc2OP(=O)(OCC(F)(F)F)OC1(C(F)(F)F)C(F)(F)F` (stereo not drawn) as the compound, how does the GI50 (XF498) read?
The GI50 was > 100 µM (inactive).

And the GI50 (DMS-114)?
Its GI50 is > 100 µM (inactive).

What about the GI50 (LXFL 529) of the same compound?
The GI50 was > 100 µM (inactive).

And the GI50 (M19-MEL)?
Its GI50 is > 100 µM (inactive).

What about the GI50 (SNB-78) of the same compound?
The GI50 was > 100 µM (inactive).

What about the GI50 (DMS-273) of the same compound?
The GI50 was > 100 µM (inactive).

How did the GI50 (RXF 631) turn out when `CCOC(=O)/C(C(=O)c1ccccc1)=C1\N[C@H](C(=O)OCC)CS1` was run?
Its GI50 is > 100 µM (inactive).

And the GI50 (XF498)?
The GI50 was > 100 µM (inactive).

What about the GI50 (LXFL 529) of the same compound?
The GI50 was > 100 µM (inactive).

And the GI50 (HOP-18)?
The GI50 was 16.3 µM (inactive).

And the GI50 (SNB-78)?
The GI50 was > 100 µM (inactive).

Which GI50 (BT-549) does the source give for `CCCCCc1c(CCCC)c(=O)[nH]c2cc(CNCC(OC)OC)ccc12` here?
The GI50 was 14.8 µM (inactive).

Which GI50 (XF498) does the source give for `O=C1NC(=O)C2C(=O)NC(=O)C1C2(c1ccccc1)c1cc[nH]c1` (stereo not drawn) here?
Its GI50 is > 100 µM (inactive).

And the GI50 (DMS-114)?
The GI50 was > 100 µM (inactive).

And the GI50 (LXFL 529)?
Its GI50 is > 100 µM (inactive).

And the GI50 (M19-MEL)?
The GI50 was > 100 µM (inactive).

And the GI50 (SNB-78)?
The GI50 was > 100 µM (inactive).

What about the GI50 (DMS-273) of the same compound?
Its GI50 is > 100 µM (inactive).

Which GI50 (BT-549) does the source give for `c1ccc(Nc2nnc(Cn3ccc4ccccc43)s2)cc1` here?
Its GI50 is > 100 µM (inactive).

`CC1=CC2(O)OC3(CC2=C(C)C)C(C)CCC13` (stereo not drawn) was tested. Which GI50 (BT-549) did it give?
Its GI50 is > 100 µM (inactive).

Which GI50 (RXF 631) does the source give for `C/C(=N\NC(=S)NC(CCC(=O)O)C(=O)O)c1cnccn1` (stereo not drawn) here?
Its GI50 is > 100 µM (inactive).

And the GI50 (XF498)?
The GI50 was > 100 µM (inactive).

And the GI50 (DMS-114)?
The GI50 was > 100 µM (inactive).

And the GI50 (LXFL 529)?
Its GI50 is > 100 µM (inactive).

And the GI50 (M19-MEL)?
Its GI50 is > 100 µM (inactive).

What about the GI50 (HOP-18) of the same compound?
The GI50 was > 100 µM (inactive).

What about the GI50 (SNB-78) of the same compound?
Its GI50 is > 100 µM (inactive).

With `c1ccc2c(c1)nc1n2CCCn2ccnc2-1` as the compound, how does the GI50 (BT-549) read?
The GI50 was > 100 µM (inactive).

How did the GI50 (BT-549) turn out when `COc1ccc(-c2c3c(n(C4OC(CO)C(O)C(O)C4O)c(=S)c2C#N)CC(C)(C)CC3=O)cc1` (stereo not drawn) was run?
The GI50 was > 100 µM (inactive).

With `O=C(OCC1CCCN2CCCCC12)c1ccncc1` (stereo not drawn) as the compound, how does the GI50 (BT-549) read?
The GI50 was > 100 µM (inactive).

`Cc1cccc(/N=N/C(=N\NC(=O)c2cc(Cl)ccc2O)c2ccc(N(CCC#N)CCC#N)cc2C)c1` was tested. Which GI50 (BT-549) did it give?
The GI50 was 24.2 µM (inactive).

With `Nc1ccc2nc(N)n[n+]([O-])c2c1` as the compound, how does the GI50 (BT-549) read?
The GI50 was > 100 µM (inactive).

Which results are given for `O=C(Cc1ccccc1[N+](=O)[O-])C(CO)c1ccccc1[N+](=O)[O-]` (stereo not drawn)?
GI50 (XF498): 20.8 µM (inactive); GI50 (DMS-114): 67.1 µM (inactive); GI50 (LXFL 529): 57.1 µM (inactive); GI50 (M19-MEL): 95.9 µM (inactive); GI50 (HOP-18): 4.17 µM (inactive); GI50 (SNB-78): > 100 µM (inactive); GI50 (DMS-273): > 100 µM (inactive)

Which GI50 (BT-549) does the source give for `Clc1ccc2c(c1)N(CCCN1CCCC13CCCCC3)c1ccccc1S2` here?
Its GI50 is 14.9 µM (inactive).

With `CCOC(=O)N1CCN(c2ccc3ccc(N)nc3n2)CC1` as the compound, how does the GI50 (BT-549) read?
The GI50 was > 100 µM (inactive).

For `Cc1ccc(S(=O)(=O)N/N=C(\CCN2CCCC2)CC(c2ccccc2)c2c(O)c3ccccc3oc2=O)cc1` (stereo not drawn), which GI50 (RXF 631) is on record?
Its GI50 is > 100 µM (inactive).

And the GI50 (XF498)?
The GI50 was > 100 µM (inactive).

And the GI50 (LXFL 529)?
Its GI50 is > 100 µM (inactive).

And the GI50 (M19-MEL)?
Its GI50 is > 100 µM (inactive).

And the GI50 (HOP-18)?
The GI50 was > 100 µM (inactive).

What about the GI50 (SNB-78) of the same compound?
Its GI50 is > 100 µM (inactive).

For `O=C(O)Cn1ccc(=O)c2c([N+](=O)[O-])cccc21`, which GI50 (BT-549) is on record?
The GI50 was > 100 µM (inactive).

Which GI50 (BT-549) does the source give for `O=C1CC(Cl)c2c1csc2Br` (stereo not drawn) here?
The GI50 was 19.9 µM (inactive).

Which GI50 (BT-549) does the source give for `Cc1ccc(/N=C2/SC(c3ccc(C)cc3)(c3ccc(C)cc3)c3ccccc32)cc1` here?
The GI50 was > 100 µM (inactive).

`CCOC(=O)C1C(=O)C=C(c2cc(C)ccc2O)CC1c1cccc(Br)c1` (stereo not drawn) was tested. Which GI50 (BT-549) did it give?
Its GI50 is 24.9 µM (inactive).

How did the GI50 (BT-549) turn out when `CSc1c(C#N)c(=O)[nH]c2[nH]nc(C)c12` was run?
The GI50 was > 100 µM (inactive).

How did the GI50 (BT-549) turn out when `Cc1cc(CNC(=O)OCc2ccccc2)c(C)c2c1Oc1ccccc1O2` was run?
Its GI50 is 62.8 µM (inactive).

How did the GI50 (RXF 631) turn out when `COc1ccc(C(C#N)Cc2cc(OC)c(OC)c(OC)c2)cc1` (stereo not drawn) was run?
The GI50 was 35.6 µM (inactive).

What about the GI50 (DMS-114) of the same compound?
Its GI50 is 17.4 µM (inactive).

And the GI50 (LXFL 529)?
Its GI50 is 41.8 µM (inactive).

What about the GI50 (M19-MEL) of the same compound?
The GI50 was 29.9 µM (inactive).

And the GI50 (HOP-18)?
The GI50 was > 100 µM (inactive).

What about the GI50 (SNB-78) of the same compound?
The GI50 was 39.8 µM (inactive).

What about the GI50 (DMS-273) of the same compound?
The GI50 was 7.16 µM (inactive).

For `Cc1cc2nc3c(C#N)c(-c4ccccc4)cc(Nc4cccc(C(F)(F)F)c4)n3c2cc1C`, which GI50 (BT-549) is on record?
Its GI50 is 10.5 µM (inactive).

Which GI50 (RXF 631) does the source give for `N#Cc1c(-c2ccccc2)cc(-c2ccc(N)cc2)[nH]c1=O` here?
Its GI50 is > 100 µM (inactive).

What about the GI50 (DMS-114) of the same compound?
Its GI50 is > 100 µM (inactive).

What about the GI50 (LXFL 529) of the same compound?
Its GI50 is > 100 µM (inactive).

What about the GI50 (M19-MEL) of the same compound?
The GI50 was > 100 µM (inactive).

And the GI50 (HOP-18)?
The GI50 was > 100 µM (inactive).

And the GI50 (SNB-78)?
The GI50 was > 100 µM (inactive).

What about the GI50 (DMS-273) of the same compound?
Its GI50 is > 100 µM (inactive).

Which GI50 (XF498) does the source give for `COC1OC(OC)C2C(c3c(C)cc(C)cc3C)=NOC12` (stereo not drawn) here?
Its GI50 is > 100 µM (inactive).

And the GI50 (LXFL 529)?
Its GI50 is > 100 µM (inactive).

What about the GI50 (M19-MEL) of the same compound?
The GI50 was > 100 µM (inactive).

What about the GI50 (HOP-18) of the same compound?
The GI50 was > 100 µM (inactive).

And the GI50 (SNB-78)?
Its GI50 is > 100 µM (inactive).

And the GI50 (DMS-273)?
The GI50 was > 100 µM (inactive).

How did the GI50 (BT-549) turn out when `O=C(CCl)Nc1cc(Cl)c(Cl)cc1Cl` was run?
Its GI50 is 1.77 µM (inactive).

Which GI50 (BT-549) does the source give for `NCCNCC(O)CO` (stereo not drawn) here?
The GI50 was > 100 µM (inactive).

`O=C(Nc1nc(C23CC4CC(CC(C4)C2)C3)cs1)c1cc2cc(Br)cc(Br)c2oc1=O` was tested. Which GI50 (BT-549) did it give?
The GI50 was > 100 µM (inactive).

For `COc1ccccc1NC(=O)CC(=O)N1N=C(N2c3ccccc3Sc3ccccc32)CC1c1ccccc1` (stereo not drawn), which GI50 (BT-549) is on record?
The GI50 was > 100 µM (inactive).

How did the GI50 (BT-549) turn out when `Cc1cccc(-c2cc(O)c3cccnc3n2)c1` was run?
Its GI50 is > 100 µM (inactive).

`O=C1CCCC2=C1CC1=C(CCCC1=O)N2c1cccc2ccccc12` was tested. Which GI50 (BT-549) did it give?
The GI50 was 26.8 µM (inactive).
